# Test results published in patent publication US20250019373A1, “ARYL OR HETEROARYL DERIVATIVE, AND PHARMACEUTICAL COMPOSITION COMPRISING SAME AS ACTIVE INGREDIENT FOR PREVENTION OR TREATMENT OF KINASE-RELATED DISEASES” (VORONOI INC., priority 2021, published 2025).
# System: HT-29 cells
# Test: Cell necrosis inhibitory activity under necroptosis-inducing conditions (TNF-α, Z-VAD-FMK, LCL161) in HT-29 cells, Cell Titer-Glo
# Format: cell-based
# Conditions: Homo sapiens, 100 ng/mL TNF-α + 25 μM Z-VAD-FMK + Smac mimetic LCL161, 24 hours, cell viability
# Description: To evaluate the cell necrosis inhibitory activity of the compound according to the present invention, an experiment was conducted as follows.
# To evaluate the efficacy of inhibiting cell necrosis under TNF-α-mediated cell death-inducing conditions, a HT-29 cell line (Korean Cell Line Bank Accession No. #30038) was cultured in RPMI-1640 (HyClone #SH3027.01) medium containing 10% fetal bovine serum (FBS) and 1% penicillin/streptomycin to analyze cell viability. More specifically, for testing, the cell line was seeded in a 96-well flat bottom plate (Corning #3903) at a concentration of 10,000 cells/well and incubated at 37° C. under a 5% CO2 condition for 24 hours. Each well was treated with 100 ng/mL TNF-α, 25 μM pan-caspase inhibitor (Z-VAD-FMK, Selleckchem #S8102), and 10 µM Smac mimetic LCL161 (Selleckchem #S7009) and allowed to react for 10 minutes. The compounds of Examples were treated at 11 concentrations (the highest concentration being 0.1 μM or 1 μM) with a 3-fold concentration gradient, and as a control, dimethyl sulfoxide (DMSO) was treated at a concentration of 0.05% (v/v), which is the same as those when the compounds were treated. The treated cells were incubated for 24 hours. To confirm the degree of cell viability, 100 μL of Cell Titer-Glo (Promega #G7573) was added to the medium of the cultured cells and cultured for additional 10 minutes, and then luminescence was measured using a microplate reader. Based on the […] of control cells that were not treated with the compound, the degree of cell necrosis inhibitory activity was calculated according to the treatment concentration of each compound. Here, the concentration at which the cell necrosis inhibitory activity was 50% was determined as an EC50 (nM) value and calculated using Prism (ver. 8.4.3 #GraphPad) software.
row,Compound,EC50
1,"Cc1ncc(-c2ccc3nc(NC(=O)C4CC4)sc3c2)cc1NC(=O)N1OCC[C@H]1c1ccccc1 [Example 29, (S)-N-(5-(2-(cyclopropanecarboxamido)benzo[d]thiazol-6-yl)-2-methylpyridin-3-yl)-3-phenylisoxazolidine-2-carboxamide]",0.1 nM
2,"COc1ncc(-c2ccc3nc(NC(=O)C4CC4)cn3n2)cc1NC(=O)N1OCC[C@H]1c1ccccc1 [Example 4, (S)-N-(5-(2-(cyclopropanecarboxamido)imidazo[1,2-b]pyridazin-6-yl)-2-methoxypyridin-3-yl)-3-phenylisoxazolidine-2-carboxamide]",0.2 nM
3,"Cc1ccc(-c2ccn3nc(N)cc3c2)cc1NC(=O)N1CCOC[C@H]1c1ccccc1 [Example 136, (R)-N-(5-(2-aminopyrazolo[1,5-a]pyridin-5-yl)-2-methylphenyl)-3-phenylmorpholine-4-carboxamide]",5.4 nM
4,"Nc1nc2ccc(-c3ccc(F)c(NC(=O)N4OCC[C@H]4c4ccccc4)c3)cn2n1 [Example 96, (S)-N-(5-(2-amino-[1,2,4]triazolo[1,5-a]pyridin-6-yl)-2-fluorophenyl)-3-phenylisoxazolidine-2-carboxamide]",1.9 nM
5,"Cc1ccc(-c2cc3scnc3cn2)cc1NC(=O)N1OCC[C@H]1c1ccccc1 [Example 130, (S)-N-(2-methyl-5-(thiazolo[4,5-c]pyridin-6-yl)phenyl)-3-phenylisoxazolidine-2-carboxamide]",1.4 nM
6,"Cc1ncc(-c2ccc3nc(NC(=O)C4CC4)nn3c2)cc1NC(=O)N1OCC[C@H]1c1ccccc1 [Example 36, (S)-N-(5-(2-(cyclopropanecarboxamido)-[1,2,4]triazolo[1,5-a]pyridin-6-yl)-2-methylpyridin-3-yl)-3-phenylisoxazolidine-2-carboxamide]",0.6 nM
7,"Cc1ncc(-c2ccn3nc(N)nc3c2)cc1NC(=O)N1OCC[C@H]1c1ccccc1 [Example 50, (S)-N-(5-(2-amino-[1,2,4]triazolo[1,5-a]pyridin-7-yl)-2-methylpyridin-3-yl)-3-phenylisoxazolidine-2-carboxamide]",1.3 nM
8,"COc1ncc(-c2ccc3nc(N)nn3c2)cc1NC(=O)N1OCC[C@H]1c1cc(F)cc(F)c1 [Example 57, (S)-N-(5-(2-amino-[1,2,4]triazolo[1,5-a]pyridin-6-yl)-2-methoxypyridin-3-yl)-3-(3,5-difluorophenyl)isoxazolidine-2-carboxamide]",4.4 nM
9,"COc1ncc(-c2ccn3nc(N)nc3c2)cc1NC(=O)N1OCC[C@H]1c1ccccc1 [Example 47, (S)-N-(5-(2-amino-[1,2,4]triazolo[1,5-a]pyridin-7-yl)-2-methoxypyridin-3-yl)-3-phenylisoxazolidine-2-carboxamide]",0.5 nM
10,"Nc1nc2cc(-c3ccc(F)c(NC(=O)N4OCC[C@H]4c4ccccc4)c3F)ccn2n1 [Example 134, (S)-N-(3-(2-amino-[1,2,4]triazolo[1,5-a]pyridin-7-yl)-2,6-difluorophenyl)-3-phenylisoxazolidine-2-carboxamide]",13 nM
11,"Cc1ccc(-c2ccc3nccn3n2)cc1NC(=O)N1OCC[C@H]1c1ccccc1 [Example 112, (S)-N-(5-(imidazo[1,2-b]pyridazin-6-yl)-2-methylphenyl)-3-phenylisoxazolidine-2-carboxamide]",3.3 nM
12,"Cc1ncc(-c2ccc3nc(N)nn3c2)cc1NC(=O)N1OCC[C@H]1c1ccc(F)c(Cl)c1 [Example 42, (S)-N-(5-(2-amino-[1,2,4]triazolo[1,5-a]pyridin-6-yl)-2-methylpyridin-3-yl)-3-(3-chloro-4-fluorophenyl)isoxazolidine-2-carboxamide]",0.6 nM
13,"Cc1ccc(-c2ccc3ncnn3c2)cc1NC(=O)N1OCC[C@H]1c1ccccc1 [Example 101, (S)-N-(5-([1,2,4]triazolo[1,5-a]pyridin-6-yl)-2-methylphenyl)-3-phenylisoxazolidine-2-carboxamide]",6.2 nM
14,"Cc1ccc(-c2ccc3nc(N)cn3n2)cc1NC(=O)N1OCC[C@H]1c1ccccc1 [Example 95, (S)-N-(5-(2-aminoimidazo[1,2-b]pyridazin-6-yl)-2-methylphenyl)-3-phenylisoxazolidine-2-carboxamide]",7.5 nM
15,"COc1ncc(-c2ccn3nc(N)nc3c2)cc1NC(=O)N1OCC[C@H]1c1cc(F)cc(F)c1 [Example 54, (S)-N-(5-(2-amino-[1,2,4]triazolo[1,5-a]pyridin-7-yl)-2-methoxypyridin-3-yl)-3-(3,5-difluorophenyl)isoxazolidine-2-carboxamide]",0.4 nM
16,"Cc1ncc(-c2ccc3nc(N)nn3c2)cc1NC(=O)N1OCC[C@H]1c1cccc(Cl)c1 [Example 39, (S)-N-(5-(2-amino-[1,2,4]triazolo[1,5-a]pyridin-6-yl)-2-methylpyridin-3-yl)-3-(3-chlorophenyl)isoxazolidine-2-carboxamide]",0.9 nM
17,"Cc1ccc(-c2ccc3ncc(C#CC(C)(C)O)n3c2)cc1NC(=O)N1OCC[C@H]1c1ccccc1 [Example 115, (S)-N-(5-(3-(3-hydroxy-3-methylbut-1-yn-1-yl)imidazo[1,2-a]pyridin-6-yl)-2-methylphenyl)-3-phenylisoxazolidine-2-carboxamide]",1.7 nM
18,"Cc1ccc(-c2ccc3ncsc3n2)cc1NC(=O)N1OCC[C@H]1c1ccccc1 [Example 131, (S)-N-(2-methyl-5-(thiazolo[5,4-b]pyridin-5-yl)phenyl)-3-phenylisoxazolidine-2-carboxamide]",4 nM
19,"CC(=O)Nc1nc2cc(-c3cnc(C)c(NC(=O)N4OCC[C@H]4c4ccccc4)c3)ccn2n1 [Example 49, (S)-N-(5-(2-acetamido-[1,2,4]triazolo[1,5-a]pyridin-7-yl)-2-methylpyridin-3-yl)-3-phenylisoxazolidine-2-carboxamide]",1.3 nM
20,"COc1ccc(-c2ccc3nc(N)nn3c2)cc1NC(=O)N1OCC[C@H]1c1ccccc1 [Example 31, (S)-N-(5-(2-amino-[1,2,4]triazolo[1,5-a]pyridin-6-yl)-2-methoxyphenyl)-3-phenylisoxazolidine-2-carboxamide]",4.6 nM
21,"COc1ncc(-c2cc(C(F)(F)F)c3c(N)ncnn23)cc1NC(=O)N1OCC[C@H]1c1ccccc1 [Example 129, (S)-N-(5-(4-amino-5-(trifluoromethyl)pyrrolo[2,1-f][1,2,4]triazin-7-yl)-2-methoxypyridin-3-yl)-3-phenylisoxazolidine-2-carboxamide]",3.6 nM
22,"CNC(=O)c1n[nH]c2cc(-c3cc(NC(=O)N4OCC[C@H]4c4ccccc4)cnc3C)ccc12 [Example 18, (S)-N-(6-methyl-5-(3-(methylcarbamoyl)-1H-indazol-6-yl)pyridin-3-y1)-3-phenylisoxazolidine-2-carboxamide]",0.3 nM
23,"COc1cccc([C@@H]2CCON2C(=O)Nc2cc(-c3ccc4nc(N)nn4c3)cnc2C)c1 [Example 45, (S)-N-(5-(2-amino-[1,2,4]triazolo[1,5-a]pyridin-6-yl)-2-methylpyridin-3-yl)-3-(3-methoxyphenyl)isoxazolidine-2-carboxamide]",4.6 nM
24,"Cc1ccc(-c2ccn3nc(N)nc3c2)cc1NC(=O)N1OCC[C@H]1c1cc(F)cc(F)c1 [Example 63, (S)-N-(5-(2-amino-[1,2,4]triazolo[1,5-a]pyridin-7-yl)-2-methylphenyl)-3-(3,5-difluorophenyl)isoxazolidine-2-carboxamide]",0.2 nM
25,"Cc1ncc(-c2ccc3nc(N)nn3c2)cc1NC(=O)N1OCC[C@H]1c1cc(F)cc(F)c1 [Example 38, (S)-N-(5-(2-amino-[1,2,4]triazolo[1,5-a]pyridin-6-yl)-2-methylpyridin-3-yl)-3-(3,5-difluorophenyl)isoxazolidine-2-carboxamide]",1.6 nM
26,"Cc1ccc(-c2ccc3nc(N)oc3c2)cc1NC(=O)N1OCC[C@H]1c1ccccc1 [Example 109, (S)-N-(5-(2-aminobenzo[d]oxazol-6-yl)-2-methylphenyl)-3-phenylisoxazolidine-2-carboxamide]",1 nM
27,"CC(=O)Nc1nc2ccc(-c3cnc(C)c(NC(=O)N4OCC[C@H]4c4ccccc4)c3)cn2n1 [Example 35, (S)-N-(5-(2-acetamido-[1,2,4]triazolo[1,5-a]pyridin-6-yl)-2-methylpyridin-3-yl)-3-phenylisoxazolidine-2-carboxamide]",3.2 nM
28,"CC(=O)Nc1nc2ccc(-c3cnc(C)c(NC(=O)N4OCC[C@H]4c4ccccc4)c3)cc2s1 [Example 28, (S)-N-(5-(2-acetamidobenzo[d]thiazol-6-yl)-2-methylpyridin-3-yl)-3-phenylisoxazolidine-2-carboxamide]",0.2 nM
29,"Cc1ccc(-c2ccc3nc(N)nn3c2)cc1NC(=O)N1OCC[C@H]1c1cc(F)cc(F)c1 [Example 59, (S)-N-(5-(2-amino-[1,2,4]triazolo[1,5-a]pyridin-6-yl)-2-methylphenyl)-3-(3,5-difluorophenyl)isoxazolidine-2-carboxamide]",0.7 nM
